# Laboratory results taken from PMC4490784, “Compensatory induction of MYC expression by sustained CDK9 inhibition via a BRD4-dependent mechanism” (eLife, 2015).
# Key:
# Assay in all cases: KINOMEscan binding assay
# PIP5K2B = biological target: T1, PIP5K2B (Homo sapiens, UniProt P78356); conditions: read-out: % Retention on Solid Support
# T1 construct: purchased DiscoveRx KINOMEscan
# Outline: (§1)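 Competitive displacement at the ATP site served as the measure. Over 400 kinases were included, each exposed to i-CDK9 at 1 and at 10 µM.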
# SIK2 = biological target: T2, SIK2 (Homo sapiens, UniProt Q9H0K1); conditions: read-out: % Retention on Solid Support
# T2 construct: purchased DiscoveRx KINOMEscan
# Outline: as §1
# PIK3CA(Q546K) = biological target: T3, PIK3CA(Q546K) (Homo sapiens, UniProt P42336, Q546K); conditions: read-out: % Retention on Solid Support
# T3 construct: purchased DiscoveRx KINOMEscan
# Outline: as §1
# ACVR2B = biological target: T4, ACVR2B (Homo sapiens, UniProt Q13705)
# T4 construct: purchased DiscoveRx KINOMEscan
# Outline: as §1
# [1] = biological target: T5, TYK2(JH1domain-catalytic) (Homo sapiens, UniProt P29597)
# T5 construct: TYK2(JH1domain-catalytic); purchased DiscoveRx KINOMEscan
# Outline: as §1
# CTK = biological target: T6, CTK (Homo sapiens, UniProt P42679); conditions: read-out: % Retention on Solid Support
# T6 construct: purchased DiscoveRx KINOMEscan
# Outline: as §1
# ZAK = biological target: T7, ZAK (Homo sapiens, UniProt Q9NYL2); conditions: read-out: % Retention on Solid Support
# T7 construct: purchased DiscoveRx KINOMEscan
# Outline: as §1
# AURKB = biological target: T8, AURKB (Homo sapiens, UniProt Q96GD4); conditions: read-out: % Retention on Solid Support
# T8 construct: purchased DiscoveRx KINOMEscan
# Outline: as §1
# MYLK2 = biological target: T9, MYLK2 (Homo sapiens, UniProt Q9H1R3); conditions: read-out: % Retention on Solid Support
# T9 construct: purchased DiscoveRx KINOMEscan
# Outline: as §1
# PLK3 = biological target: T10, PLK3 (Homo sapiens, UniProt Q9H4B4); conditions: read-out: % Retention on Solid Support
# T10 construct: purchased DiscoveRx KINOMEscan
# Outline: as §1
# PRKG1 = biological target: T11, PRKG1 (Homo sapiens, UniProt Q13976); conditions: read-out: % Retention on Solid Support
# T11 construct: purchased DiscoveRx KINOMEscan
# Outline: as §1
# PIK3C2B = biological target: T12, PIK3C2B (Homo sapiens, UniProt O00750); conditions: read-out: % Retention on Solid Support
# T12 construct: purchased DiscoveRx KINOMEscan
# Outline: as §1
# AMPK-alpha1 = biological target: T13, AMPK-alpha1 (Homo sapiens, UniProt Q13131); conditions: read-out: % Retention on Solid Support
# T13 construct: purchased DiscoveRx KINOMEscan
# Outline: as §1
# MYO3A = biological target: T14, MYO3A (Homo sapiens, UniProt Q8NEV4); conditions: read-out: % Retention on Solid Support
# T14 construct: purchased DiscoveRx KINOMEscan
# Outline: as §1
# KIT(D816V) = biological target: T15, KIT(D816V) (Homo sapiens, UniProt P10721, D816V); conditions: read-out: % Retention on Solid Support
# T15 construct: purchased DiscoveRx KINOMEscan
# Outline: as §1
# [2] = biological target: T16, RSK3(Kin.Dom.1-N-terminal) (Homo sapiens, UniProt Q15349); conditions: read-out: % Retention on Solid Support
# T16 construct: RSK3(Kin.Dom.1-N-terminal); purchased DiscoveRx KINOMEscan
# Outline: as §1
# MEK1 = biological target: T17, MEK1 (Homo sapiens, UniProt Q02750); conditions: read-out: % Retention on Solid Support
# T17 construct: purchased DiscoveRx KINOMEscan
# Outline: as §1
# FLT3 = biological target: T18, FLT3 (Homo sapiens, UniProt P36888); conditions: read-out: % Retention on Solid Support
# T18 construct: purchased DiscoveRx KINOMEscan
# Outline: as §1
# NIM1 = biological target: T19, NIM1 (Homo sapiens, UniProt Q8IY84); conditions: read-out: % Retention on Solid Support
# T19 construct: purchased DiscoveRx KINOMEscan
# Outline: as §1
# PIM3 = biological target: T20, PIM3 (Homo sapiens, UniProt Q86V86); conditions: read-out: % Retention on Solid Support
# T20 construct: purchased DiscoveRx KINOMEscan
# Outline: as §1
# PIK3CA = biological target: T21, PIK3CA (Homo sapiens, UniProt P42336); conditions: read-out: % Retention on Solid Support
# T21 construct: purchased DiscoveRx KINOMEscan
# Outline: as §1
# ADCK3 = biological target: T22, ADCK3 (Homo sapiens, UniProt Q8NI60); conditions: read-out: % Retention on Solid Support
# T22 construct: purchased DiscoveRx KINOMEscan
# Outline: as §1
# FLT4 = biological target: T23, FLT4 (Homo sapiens, UniProt P35916); conditions: read-out: % Retention on Solid Support
# T23 construct: purchased DiscoveRx KINOMEscan
# Outline: as §1
# RIOK3 = biological target: T24, RIOK3 (Homo sapiens, UniProt O14730); conditions: read-out: % Retention on Solid Support
# T24 construct: purchased DiscoveRx KINOMEscan
# Outline: as §1
# PKN1 = biological target: T25, PKN1 (Homo sapiens, UniProt Q16512); conditions: read-out: % Retention on Solid Support
# T25 construct: purchased DiscoveRx KINOMEscan
# Outline: as §1
# TRKB = biological target: T26, TRKB (Homo sapiens, UniProt Q16620); conditions: read-out: % Retention on Solid Support
# T26 construct: purchased DiscoveRx KINOMEscan
# Outline: as §1
# [3] = biological target: T27, RSK4(Kin.Dom.2-C-terminal) (Homo sapiens, UniProt Q9UK32)
# T27 construct: RSK4(Kin.Dom.2-C-terminal); purchased DiscoveRx KINOMEscan
# Outline: as §1
# PAK4 = biological target: T28, PAK4 (Homo sapiens, UniProt O96013); conditions: read-out: % Retention on Solid Support
# T28 construct: purchased DiscoveRx KINOMEscan
# Outline: as §1
# T15 sequence (P10721 26-976 D816V): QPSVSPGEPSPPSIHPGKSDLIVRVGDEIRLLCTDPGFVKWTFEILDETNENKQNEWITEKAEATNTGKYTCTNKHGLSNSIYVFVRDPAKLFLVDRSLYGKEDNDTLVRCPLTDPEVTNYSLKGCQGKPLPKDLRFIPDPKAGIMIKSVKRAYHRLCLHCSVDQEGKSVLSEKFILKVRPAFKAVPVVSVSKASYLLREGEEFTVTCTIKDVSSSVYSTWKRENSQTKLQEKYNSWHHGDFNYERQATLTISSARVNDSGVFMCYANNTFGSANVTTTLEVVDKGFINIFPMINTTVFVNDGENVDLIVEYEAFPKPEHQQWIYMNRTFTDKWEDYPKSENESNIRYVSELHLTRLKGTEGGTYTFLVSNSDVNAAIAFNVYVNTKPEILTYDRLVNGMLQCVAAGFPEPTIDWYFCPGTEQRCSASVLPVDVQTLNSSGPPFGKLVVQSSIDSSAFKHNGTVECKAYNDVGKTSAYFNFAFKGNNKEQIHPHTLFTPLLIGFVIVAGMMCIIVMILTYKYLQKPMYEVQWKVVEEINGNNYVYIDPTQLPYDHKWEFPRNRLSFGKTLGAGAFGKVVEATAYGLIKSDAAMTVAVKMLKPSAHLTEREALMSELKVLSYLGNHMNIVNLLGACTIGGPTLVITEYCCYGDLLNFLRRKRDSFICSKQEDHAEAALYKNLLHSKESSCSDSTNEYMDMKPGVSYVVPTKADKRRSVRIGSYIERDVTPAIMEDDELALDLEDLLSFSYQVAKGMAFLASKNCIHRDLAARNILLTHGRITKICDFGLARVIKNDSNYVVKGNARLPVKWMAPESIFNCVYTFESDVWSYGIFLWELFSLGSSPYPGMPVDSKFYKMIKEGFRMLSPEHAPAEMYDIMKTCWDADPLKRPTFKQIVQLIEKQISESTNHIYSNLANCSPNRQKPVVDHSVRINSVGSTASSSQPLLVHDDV
# T1 sequence (P78356 whole entry): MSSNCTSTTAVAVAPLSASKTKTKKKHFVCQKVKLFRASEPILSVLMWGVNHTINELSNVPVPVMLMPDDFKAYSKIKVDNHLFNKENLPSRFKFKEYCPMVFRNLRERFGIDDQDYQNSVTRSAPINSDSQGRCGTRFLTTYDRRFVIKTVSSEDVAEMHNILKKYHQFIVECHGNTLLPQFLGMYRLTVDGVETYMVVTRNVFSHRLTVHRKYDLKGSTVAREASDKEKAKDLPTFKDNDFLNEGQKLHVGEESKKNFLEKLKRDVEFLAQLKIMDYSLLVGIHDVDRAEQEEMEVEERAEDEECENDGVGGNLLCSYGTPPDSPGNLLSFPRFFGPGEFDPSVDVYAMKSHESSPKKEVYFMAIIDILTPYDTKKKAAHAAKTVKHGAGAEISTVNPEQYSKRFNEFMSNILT
# T7 sequence (Q9NYL2 whole entry): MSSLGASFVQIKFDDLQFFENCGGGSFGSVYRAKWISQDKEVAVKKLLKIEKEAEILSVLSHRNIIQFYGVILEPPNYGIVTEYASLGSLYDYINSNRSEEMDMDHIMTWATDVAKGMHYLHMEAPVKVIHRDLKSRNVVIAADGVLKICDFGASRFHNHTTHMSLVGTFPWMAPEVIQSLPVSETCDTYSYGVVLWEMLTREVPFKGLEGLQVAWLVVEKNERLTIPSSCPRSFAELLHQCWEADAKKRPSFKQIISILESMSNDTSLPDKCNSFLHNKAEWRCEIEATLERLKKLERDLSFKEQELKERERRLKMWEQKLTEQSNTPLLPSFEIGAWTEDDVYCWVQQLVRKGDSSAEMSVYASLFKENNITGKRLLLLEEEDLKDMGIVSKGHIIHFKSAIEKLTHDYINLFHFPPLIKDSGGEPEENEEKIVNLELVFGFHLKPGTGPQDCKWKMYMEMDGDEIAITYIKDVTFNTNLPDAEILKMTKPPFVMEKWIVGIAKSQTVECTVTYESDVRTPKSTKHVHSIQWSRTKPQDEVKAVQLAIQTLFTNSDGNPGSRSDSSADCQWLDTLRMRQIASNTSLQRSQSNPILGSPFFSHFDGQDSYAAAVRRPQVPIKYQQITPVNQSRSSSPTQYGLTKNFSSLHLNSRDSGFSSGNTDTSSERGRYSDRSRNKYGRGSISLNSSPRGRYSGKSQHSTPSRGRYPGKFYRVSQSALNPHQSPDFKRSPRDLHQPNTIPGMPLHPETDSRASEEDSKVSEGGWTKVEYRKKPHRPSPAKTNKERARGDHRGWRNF
# T28 sequence (O96013 whole entry): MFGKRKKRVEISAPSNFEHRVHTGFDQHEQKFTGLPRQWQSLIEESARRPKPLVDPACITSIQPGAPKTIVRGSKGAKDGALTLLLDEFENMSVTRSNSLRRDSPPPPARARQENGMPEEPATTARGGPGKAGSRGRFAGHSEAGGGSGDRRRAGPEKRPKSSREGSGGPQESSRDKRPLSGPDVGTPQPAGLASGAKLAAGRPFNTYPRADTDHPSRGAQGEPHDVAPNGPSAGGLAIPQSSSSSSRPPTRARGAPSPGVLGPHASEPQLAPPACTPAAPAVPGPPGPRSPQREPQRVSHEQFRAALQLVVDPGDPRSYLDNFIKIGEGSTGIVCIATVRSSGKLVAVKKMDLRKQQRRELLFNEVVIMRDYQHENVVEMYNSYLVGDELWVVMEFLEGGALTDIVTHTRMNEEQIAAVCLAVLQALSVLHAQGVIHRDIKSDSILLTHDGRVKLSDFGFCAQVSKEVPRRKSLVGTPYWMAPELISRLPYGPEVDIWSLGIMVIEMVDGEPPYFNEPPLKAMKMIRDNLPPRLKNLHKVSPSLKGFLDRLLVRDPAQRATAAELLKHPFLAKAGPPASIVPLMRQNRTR
# T8 sequence (Q96GD4 whole entry): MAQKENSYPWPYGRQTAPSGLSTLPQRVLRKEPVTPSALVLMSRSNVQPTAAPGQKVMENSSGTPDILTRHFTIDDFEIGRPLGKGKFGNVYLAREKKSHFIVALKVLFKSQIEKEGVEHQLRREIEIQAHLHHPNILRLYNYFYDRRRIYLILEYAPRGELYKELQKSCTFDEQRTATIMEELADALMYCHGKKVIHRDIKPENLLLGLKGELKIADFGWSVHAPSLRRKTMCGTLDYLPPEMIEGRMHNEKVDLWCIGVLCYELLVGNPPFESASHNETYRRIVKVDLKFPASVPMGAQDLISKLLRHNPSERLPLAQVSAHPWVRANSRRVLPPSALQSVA
# T10 sequence (Q9H4B4 whole entry): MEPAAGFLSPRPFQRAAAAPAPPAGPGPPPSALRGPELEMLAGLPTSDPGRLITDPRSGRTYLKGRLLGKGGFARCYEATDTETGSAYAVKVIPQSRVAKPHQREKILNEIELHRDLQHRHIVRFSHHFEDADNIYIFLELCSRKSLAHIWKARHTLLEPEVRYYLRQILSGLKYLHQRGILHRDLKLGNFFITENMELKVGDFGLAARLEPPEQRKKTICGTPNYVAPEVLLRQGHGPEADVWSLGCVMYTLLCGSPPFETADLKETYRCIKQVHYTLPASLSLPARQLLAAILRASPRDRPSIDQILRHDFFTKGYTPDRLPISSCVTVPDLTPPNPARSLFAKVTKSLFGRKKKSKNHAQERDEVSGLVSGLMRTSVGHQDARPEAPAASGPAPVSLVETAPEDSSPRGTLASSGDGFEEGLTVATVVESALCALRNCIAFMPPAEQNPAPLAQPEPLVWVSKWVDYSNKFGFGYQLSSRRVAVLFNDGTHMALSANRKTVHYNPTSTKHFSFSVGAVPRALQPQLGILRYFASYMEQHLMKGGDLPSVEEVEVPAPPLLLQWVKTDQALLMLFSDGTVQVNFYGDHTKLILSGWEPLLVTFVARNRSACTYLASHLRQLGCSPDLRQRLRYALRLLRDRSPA
# T2 sequence (Q9H0K1 whole entry): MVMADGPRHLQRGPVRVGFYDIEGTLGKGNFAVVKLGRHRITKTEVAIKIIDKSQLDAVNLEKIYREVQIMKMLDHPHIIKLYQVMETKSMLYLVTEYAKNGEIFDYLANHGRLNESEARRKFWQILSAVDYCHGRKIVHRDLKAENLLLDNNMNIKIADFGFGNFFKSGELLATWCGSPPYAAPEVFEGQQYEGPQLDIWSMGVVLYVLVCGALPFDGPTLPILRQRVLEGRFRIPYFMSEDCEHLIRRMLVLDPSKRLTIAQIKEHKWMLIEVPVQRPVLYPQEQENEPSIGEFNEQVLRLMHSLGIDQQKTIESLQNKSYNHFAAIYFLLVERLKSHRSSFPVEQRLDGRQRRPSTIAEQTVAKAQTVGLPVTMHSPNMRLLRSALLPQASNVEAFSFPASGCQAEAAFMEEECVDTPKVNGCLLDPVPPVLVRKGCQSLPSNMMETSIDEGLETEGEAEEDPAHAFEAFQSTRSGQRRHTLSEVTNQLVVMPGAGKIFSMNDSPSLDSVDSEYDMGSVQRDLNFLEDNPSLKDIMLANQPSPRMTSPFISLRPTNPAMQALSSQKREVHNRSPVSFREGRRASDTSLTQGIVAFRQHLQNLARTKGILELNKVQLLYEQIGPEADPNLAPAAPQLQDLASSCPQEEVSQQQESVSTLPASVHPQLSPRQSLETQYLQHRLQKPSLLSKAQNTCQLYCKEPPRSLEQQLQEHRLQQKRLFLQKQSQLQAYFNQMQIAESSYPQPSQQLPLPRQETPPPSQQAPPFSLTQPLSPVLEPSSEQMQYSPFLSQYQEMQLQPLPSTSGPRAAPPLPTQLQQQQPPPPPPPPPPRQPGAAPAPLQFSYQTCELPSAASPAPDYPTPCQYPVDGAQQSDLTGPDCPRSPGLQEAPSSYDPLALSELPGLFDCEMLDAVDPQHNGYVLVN
smiles,measurement,setting,value
"N[C@H]1CC[C@H](Nc2cc(-c3cccc(NCc4cccc(F)c4)n3)c(Cl)cn2)CC1 [i-CDK9, N2′-(trans-4-aminocyclohexyl)-5′-chloro-N6-(3-fluorobenzyl)-2,4′-bipyridine-2′,6-diamine]",remaining binding at 1 µM,PIP5K2B; 1 µM i-CDK9,100%
same,remaining binding at 10 µM,PIP5K2B; 10 µM i-CDK9,77%
same,remaining binding at 1 µM,SIK2; 1 µM i-CDK9,90%
same,remaining binding at 10 µM,SIK2; 10 µM i-CDK9,64%
same,remaining binding at 1 µM,PIK3CA(Q546K); 1 µM i-CDK9,73%
same,remaining binding at 10 µM,PIK3CA(Q546K); 10 µM i-CDK9,100%
same,% Retention on Solid Support,ACVR2B; 1 µM i-CDK9,100%
same,% Retention on Solid Support,ACVR2B; 10 µM i-CDK9,85%
same,% Retention on Solid Support,[1]; 1 µM i-CDK9,62%
same,% Retention on Solid Support,[1]; 10 µM i-CDK9,100%
same,remaining binding at 1 µM,CTK; 1 µM i-CDK9,75%
same,remaining binding at 10 µM,CTK; 10 µM i-CDK9,100%
same,remaining binding at 1 µM,ZAK; 1 µM i-CDK9,100%
same,remaining binding at 10 µM,ZAK; 10 µM i-CDK9,93%
same,remaining binding at 1 µM,AURKB; 1 µM i-CDK9,72%
same,remaining binding at 10 µM,AURKB; 10 µM i-CDK9,91%
same,remaining binding at 1 µM,MYLK2; 1 µM i-CDK9,100%
same,remaining binding at 10 µM,MYLK2; 10 µM i-CDK9,88%
same,remaining binding at 1 µM,PLK3; 1 µM i-CDK9,96%
same,remaining binding at 10 µM,PLK3; 10 µM i-CDK9,89%
same,remaining binding at 1 µM,PRKG1; 1 µM i-CDK9,81%
same,remaining binding at 10 µM,PRKG1; 10 µM i-CDK9,88%
same,remaining binding at 1 µM,PIK3C2B; 1 µM i-CDK9,100%
same,remaining binding at 10 µM,PIK3C2B; 10 µM i-CDK9,95%
same,remaining binding at 1 µM,AMPK-alpha1; 1 µM i-CDK9,84%
same,remaining binding at 10 µM,AMPK-alpha1; 10 µM i-CDK9,93%
same,remaining binding at 1 µM,MYO3A; 1 µM i-CDK9,91%
same,remaining binding at 10 µM,MYO3A; 10 µM i-CDK9,96%
same,remaining binding at 1 µM,KIT(D816V); 1 µM i-CDK9,100%
same,remaining binding at 10 µM,KIT(D816V); 10 µM i-CDK9,100%
same,remaining binding at 1 µM,[2]; 1 µM i-CDK9,100%
same,remaining binding at 10 µM,[2]; 10 µM i-CDK9,78%
same,remaining binding at 1 µM,MEK1; 1 µM i-CDK9,100%
same,remaining binding at 10 µM,MEK1; 10 µM i-CDK9,100%
same,remaining binding at 1 µM,FLT3; 1 µM i-CDK9,78%
same,remaining binding at 10 µM,FLT3; 10 µM i-CDK9,100%
same,remaining binding at 1 µM,NIM1; 1 µM i-CDK9,100%
same,remaining binding at 10 µM,NIM1; 10 µM i-CDK9,100%
same,remaining binding at 1 µM,PIM3; 1 µM i-CDK9,100%
same,remaining binding at 10 µM,PIM3; 10 µM i-CDK9,23%
same,remaining binding at 1 µM,PIK3CA; 1 µM i-CDK9,100%
same,remaining binding at 10 µM,PIK3CA; 10 µM i-CDK9,100%
same,remaining binding at 1 µM,ADCK3; 1 µM i-CDK9,100%
same,remaining binding at 10 µM,ADCK3; 10 µM i-CDK9,86%
same,remaining binding at 1 µM,FLT4; 1 µM i-CDK9,68%
same,remaining binding at 10 µM,FLT4; 10 µM i-CDK9,72%
same,remaining binding at 1 µM,RIOK3; 1 µM i-CDK9,86%
same,remaining binding at 10 µM,RIOK3; 10 µM i-CDK9,73%
same,remaining binding at 1 µM,PKN1; 1 µM i-CDK9,73%
same,remaining binding at 10 µM,PKN1; 10 µM i-CDK9,100%
same,remaining binding at 1 µM,TRKB; 1 µM i-CDK9,100%
same,remaining binding at 10 µM,TRKB; 10 µM i-CDK9,100%
same,% Retention on Solid Support,[3]; 1 µM i-CDK9,53%
same,% Retention on Solid Support,[3]; 10 µM i-CDK9,51%
same,remaining binding at 1 µM,PAK4; 1 µM i-CDK9,100%
same,remaining binding at 10 µM,PAK4; 10 µM i-CDK9,100%
